Experimental data taken from paper PMC10299727, “Identification and Isolation of α-Glucosidase Inhibitors from Siraitia grosvenorii Roots Using Bio-Affinity Ultrafiltration and Comprehensive Chromatography” (International Journal of Molecular Sciences, 2023).
“And” between values parts separate entries of the source, which are not always exact repeats. Equal values may be shown once. Read-outs that look alike come from different tables or passages of the source.

Experiments:
α-glucosidase [1] = target: T1, α-glucosidase (Saccharomyces cerevisiae, UniProt P53341); assay: α-glucosidase inhibitory assay (pNPG substrate, absorbance at 405 nm); type: biochemical
T1 construct: purchased Sigma-Aldrich (Shanghai, China) G5003-100UN
Protocol: The α-glucosidase inhibitory activity of the S. grosvenorii root extracts was determined using a method mentioned previously, with some modifications to it. Briefly, the sample was dissolved in PBS containing 10% dimethyl sulfoxide. A mixture of the tested sample (50 μL, different concentrations) and α-glucosidase (20 μL, 0.2 U/mL) was placed in a 96-well microplate and incubated at 37 °C for 5 min. Next, 20 μL pNPG (1 mM) was added, and the mixture was further reacted for 30 min at 37 °C and terminated through the addition of […] solution (50 μL, […]). The percentage inhibition of α-glucosidase was determined by measuring the absorbance of the mixture at 405 nm and calculated by Equation (1):Inhibition (%) = [1 − (Ainhibitor − Ablank inhibitor)/(Acontrol − Acontrol blank)] × 100(1) where Ainhibitor, Ablank inhibitor, Acontrol, Acontrol blank are the absorbance values of the potential inhibitor and α-glucosidase, only the potential inhibitor without α-glucosidase, only α-glucosidase, and PBS buffer, respectively.

α-glucosidase [2] = target: T1, α-glucosidase; assay: Affinity ultrafiltration coupled with HPLC (UF-HPLC), specific binding factor; conditions: peaks of SGR2 (10 mg/mL) incubated with α-glucosidase; active vs denatured enzyme
Protocol: Affinity UF was performed as previously described, with slight modifications. Briefly, a PBS solution of SGR2 (10 mg/mL, 800 μL) was mixed with α-glucosidase (1 U/mL, 400 μL) and incubated at 37 °C for 45 min. Next, the mixture was centrifuged at 10,000 rpm for 10 min using a UF membrane with a 10 kDa molecular weight cutoff, to collect the active component and α-glucosidase complexes. The complexes were washed 3 times with 600 μL of PBS (0.1 M, pH 7.2) to remove unbound compounds. A solution of 70% methanol (200 μL) was added to the residue and incubated at 4 °C for 20 min to release the bound compounds. Then, the solution was collected and concentrated to a dry state. Subsequently, the dry residue was further dissolved with 0.2 mL methanol and subjected to HPLC analysis. As a negative control, α-glucosidase was inactivated at 100 °C in a water bath for 10 min. […] The specific binding factors were calculated according to Equation (2):Specific binding factor (%) = (Aa − Ab)/Ac × 100%(2) where, Aa is the peak area of the experiment with active α-glucosidase, Ab is the peak area of the control group with denatured α-glucosidase, and Ac is the peak area of the extract.

T1 sequence (P53341 whole entry): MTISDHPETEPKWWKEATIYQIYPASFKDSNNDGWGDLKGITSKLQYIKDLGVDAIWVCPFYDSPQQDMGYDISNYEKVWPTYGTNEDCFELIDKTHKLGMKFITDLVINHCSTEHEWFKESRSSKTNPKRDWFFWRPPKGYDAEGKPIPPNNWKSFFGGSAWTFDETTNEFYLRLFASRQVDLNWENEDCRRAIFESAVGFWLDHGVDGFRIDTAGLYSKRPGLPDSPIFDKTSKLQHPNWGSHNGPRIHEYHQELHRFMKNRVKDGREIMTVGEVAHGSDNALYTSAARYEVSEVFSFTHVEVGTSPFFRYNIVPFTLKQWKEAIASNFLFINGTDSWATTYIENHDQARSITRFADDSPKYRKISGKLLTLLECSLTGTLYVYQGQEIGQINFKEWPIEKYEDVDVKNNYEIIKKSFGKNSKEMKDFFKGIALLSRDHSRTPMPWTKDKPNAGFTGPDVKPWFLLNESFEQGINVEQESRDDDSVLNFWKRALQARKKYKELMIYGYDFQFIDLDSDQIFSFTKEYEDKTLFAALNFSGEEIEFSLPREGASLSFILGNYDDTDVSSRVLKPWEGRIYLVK

COc1cc(C[C@@H]2CO[C@@H](c3ccc(O)c(OC)c3)[C@@H]2CO)ccc1O [Compound 1, (-)-lariciresinol]
IC50 (α-glucosidase [1]): 1.83 ± 0.0313 mM | inhibition at 1000 µg/mL (α-glucosidase [1]): 78.2 ± 1.54% | Specific Binding Factors Mean ± SD (n = 3) (α-glucosidase [2]): 4.97 ± 0.15%

COc1cc([C@@H]2Oc3c(OC)cc(/C=C/CO)cc3[C@H]2CO)ccc1O [Compound 2, 3,4′-dimethoxy-4,9,9′-trihydroxy-benzofuranolignan-7′-ene]
inhibition at 1000 µg/mL (α-glucosidase [1]): 63.43 ± 0.23% | IC50 (α-glucosidase [1]; read-out: IC50): 2.275 ± 0.0138 mM | Specific Binding Factors Mean ± SD (n = 3) (α-glucosidase [2]): 1.87 ± 0.77%

CC1=C2CCC3C(C)(C(=O)CC4(C)C(C(C)CC/C=C(\C)C(=O)OC5OC(COC6OC(CO)C(O)C(O)C6O)C(O)C(O)C5O)C(OC5OC(CO)C(O)C(O)C5O)CC34C)C2CCC1=O (centres unmarked) [Compound 4, Siraitic acid III E]
inhibition at 1000 µg/mL (α-glucosidase [1]): 36.74 ± 0.36% | Specific Binding Factors Mean ± SD (n = 3) (α-glucosidase [2]): 2.93 ± 0.72%

CC1=C2CCC3C(C)(C(=O)CC4(C)C(C(C)CC/C=C(\C)C(=O)OC5OC(CO)C(O)C(O)C5O)C(OC5OC(CO)C(O)C(O)C5O)CC34C)C2CCC1=O (centres unmarked) [Compound 6, Siraitic acid IIb E]
inhibition at 1000 µg/mL (α-glucosidase [1]): 42.4 ± 0.81% | Specific Binding Factors Mean ± SD (n = 3) (α-glucosidase [2]): 3.91 ± 0.17%

CC(=CCCC(C)C1C(O)CC2(C)C3CCC4=C(C)C(=O)CCC4C3C(=O)CC12C)C(=O)OC1OC(COC2OC(CO)C(O)C(O)C2O)C(O)C(O)C1O (centres unmarked) [Compound 7, Siraitic acid II E]
inhibition at 1000 µg/mL (α-glucosidase [1]): 58.5 ± 1.19% | IC50 (α-glucosidase [1]; read-out: IC50): 1.207 ± 0.00549 mM | Specific Binding Factors Mean ± SD (n = 3) (α-glucosidase [2]): 3.46 ± 1.03%

C/C(=C\CCC(C)C1CCC2(C)C3CC=C4C(CCC(OC5OC(COC6OC(CO)C(O)C(O)C6O)C(O)C(O)C5O)C4(C)C)C3(C)C(=O)CC12C)C(=O)OC1OC(COC2OC(CO)C(O)C(O)C2O)C(O)C(O)C1O (centres unmarked) [Compound 8, Siraitic acid IV H]
inhibition at 1000 µg/mL (α-glucosidase [1]): 23.4 ± 1.05% | Specific Binding Factors Mean ± SD (n = 3) (α-glucosidase [2]): 0.27 ± 0.18%

CC(=CCCC(C)C1CCC2(C)C3CCC4=C(C)C(=O)CCC4C3(C)C(=O)CC12C)C(=O)OC1OC(COC2OC(CO)C(O)C(O)C2O)C(O)C(O)C1O (centres unmarked) [Compound 9, Siraitic acid II G]
inhibition at 1000 µg/mL (α-glucosidase [1]): 53.1 ± 0.99% | IC50 (α-glucosidase [1]; read-out: IC50): 1.581 ± 0.0125 mM | Specific Binding Factors Mean ± SD (n = 3) (α-glucosidase [2]): 5.33 ± 2.11%

C/C(=C\CCC(C)C1CCC2(C)C3CCC45OCC3(C(=O)CC12C)C4CCC(O)C5C)C(=O)OC1OC(COC2OC(CO)C(O)C(O)C2O)C(O)C(O)C1O (centres unmarked) [Compound 11, Siraitic acid II A]
inhibition at 1000 µg/mL (α-glucosidase [1]): 50.6 ± 1.23% | IC50 (α-glucosidase [1]; read-out: IC50): 1.24 ± 0.0205 mM | Specific Binding Factors Mean ± SD (n = 3) (α-glucosidase [2]): 6.59 ± 0.91%

C/C(=C\CCC(C)C1CCC2(C)C3CCC45OCC3(C(=O)CC12C)C4CCC(=O)C5C)C(=O)OC1OC(COC2OC(CO)C(O)C(O)C2O)C(O)C(O)C1O (centres unmarked) [Compound 12, Siraitic acid II B]
inhibition at 1000 µg/mL (α-glucosidase [1]): 51.3 ± 0.83% | IC50 (α-glucosidase [1]; read-out: IC50): 1.03 ± 0.0369 mM | Specific Binding Factors Mean ± SD (n = 3) (α-glucosidase [2]): 6.65 ± 1.18%

CC(=O)OC(C)(C)CCC(=O)[C@](C)(O)C1[C@H](O)C[C@@]2(C)[C@@H]3CC=C4[C@@H](CC(O)[C@@H](O)C4(C)C)[C@]3(C)C(=O)C[C@]12C (some centres unmarked) [Compound 13, 23,24-dihydrocucurbitacin F-25-acetate]
inhibition at 1000 µg/mL (α-glucosidase [1]): 21.7 ± 0.58% | Specific Binding Factors Mean ± SD (n = 3) (α-glucosidase [2]): 1.31 ± 0.06%

CC(=CCCC(C)C1CCC2(C)C3CCC4=C(C)C(=O)CCC4C3C(=O)CC12C)C(=O)OC1OC(COC2OC(CO)C(O)C(O)C2O)C(O)C(O)C1O (centres unmarked) [Compound 14, Siraitic acid II C]
inhibition at 1000 µg/mL (α-glucosidase [1]): 72 ± 2.18% | IC50 (α-glucosidase [1]; read-out: IC50): 0.43 ± 0.0133 mM | Specific Binding Factors Mean ± SD (n = 3) (α-glucosidase [2]): 17.26% and 17.26 ± 3.14%

CC(=O)OC(C)(C)CCC(=O)[C@](C)(O)[C@H]1[C@H](O)C[C@@]2(C)[C@@H]3CC=C4[C@@H](C[C@H](O)C(=O)C4(C)C)[C@]3(C)C(=O)C[C@]12C [Compound 16, 23,24-dihydrocucurbitacin B]
inhibition at 1000 µg/mL (α-glucosidase [1]): 27.5 ± 3.8% | Specific Binding Factors Mean ± SD (n = 3) (α-glucosidase [2]): 4.70 ± 0.76%

CC(=O)OC(C)(C)CCC(=O)[C@](C)(O)C1C(O)C[C@@]2(C)[C@@H]3CC=C4[C@@H](CC(=O)[C@@H](O)C4(C)C)[C@]3(C)C(=O)C[C@]12C (some centres unmarked) [Compound 17, Dihydroisocucurbitacin B-25-acetate]
inhibition at 1000 µg/mL (α-glucosidase [1]): 23.7 ± 0.33% | Specific Binding Factors Mean ± SD (n = 3) (α-glucosidase [2]): 2.28 ± 0.44%

Cucurbitacin B [Compound 15]
Inhibition (%) (α-glucosidase [1]; concentration of 1.0 mg/mL compound): 50.59 ± 0.98% | Specific Binding Factors Mean ± SD (n = 3) (α-glucosidase [2]): 7.98% and 7.98 ± 1.11%
